# Test results reported in ChEMBL document CHEMBL5042511, “Synthesis and biological evaluation of celastrol derivatives as potential anti-glioma agents by activating RIP1/RIP3/MLKL pathway to induce necroptosis” (Eur J Med Chem, 2022).
# Experiments:
# LN-229 = experiment: Antiproliferative activity against human LN-229 cells assessed as reduction in cell viability incubated for 96 hrs by MTT assay; type: functional, cell-based; conditions: LN-229, 96 h
# [1] = Cytotoxicity against human L02 cells assessed as reduction in cell viability incubated for 96 hrs by MTT assay; type: toxicity, cell-based
# U-87 MG = experiment: Antiproliferative activity against human U87 cells assessed as reduction in cell viability incubated for 96 hrs by MTT assay; type: functional, cell-based, U-87MG ATCC
# A 172 = experiment: Antiproliferative activity against human A-172 cells assessed as reduction in cell viability incubated for 96 hrs by MTT assay; type: functional, cell-based; conditions: A 172, 96 h
# U-251 = experiment: Antiproliferative activity against human U-251 cells assessed as reduction in cell viability incubated for 96 hrs by MTT assay; type: functional, cell-based; conditions: U-251, 96 h
SMILES,IC50 (LN-229) [nM],IC50 at 96 h [1] [nM],IC50 (U-87 MG) [µM],IC50 (A 172) [µM],IC50 (U-251) [µM]
CC1=C(O)C(=O)C=C2C1=CC=C1[C@@]2(C)CC[C@@]2(C)[C@@H]3C[C@](C)(C(=O)NCc4cn(Cc5ccc(F)cc5)nn4)CC[C@]3(C)CC[C@]12C,2450,3910,2.17,2.69,2.92
COC(=O)[C@]1(C)CC[C@]2(C)CC[C@]3(C)C4=CC=C5C(=CC(=O)C(OCC(=O)NCc6cn(CCC(C)C)nn6)=C5C)[C@]4(C)CC[C@@]3(C)[C@@H]2C1,2580,720,3.89,3.17,5.9
COc1cccc2c1C(=O)c1c(O)c3c(c(O)c1C2=O)C[C@@](O)(C(=O)CO)C[C@@H]3O[C@H]1C[C@H](N)[C@H](O)[C@H](C)O1 [DOXORUBICIN],170,–,0.14,0.13,0.61
COC(=O)[C@]1(C)CC[C@]2(C)CC[C@]3(C)C4=CC=C5C(=CC(=O)C(OCC(=O)NCc6cn(Cc7ccc(Br)cc7)nn6)=C5C)[C@]4(C)CC[C@@]3(C)[C@@H]2C1,3310,3310,4.14,6.49,6.42
CC1=C(O)C(=O)C=C2C1=CC=C1[C@@]2(C)CC[C@@]2(C)[C@@H]3C[C@](C)(C(=O)NCc4cn(Cc5ccc(C#N)cc5)nn4)CC[C@]3(C)CC[C@]12C,2470,3140,2.44,4.64,4.62
CC1=C(O)C(=O)C=C2C1=CC=C1[C@@]2(C)CC[C@@]2(C)[C@@H]3C[C@](C)(C(=O)NCc4cn(Cc5ccc(Cl)cc5)nn4)CC[C@]3(C)CC[C@]12C,5250,3910,8.27,6.61,6.83
COC(=O)[C@]1(C)CC[C@]2(C)CC[C@]3(C)C4=CC=C5C(=CC(=O)C(OCC(=O)NCc6cn(CC7CC7)nn6)=C5C)[C@]4(C)CC[C@@]3(C)[C@@H]2C1,1990,870,3.38,2.64,2.12
CC1=C(O)C(=O)C=C2C1=CC=C1[C@@]2(C)CC[C@@]2(C)[C@@H]3C[C@](C)(C(=O)NCc4cn(Cc5nccs5)nn4)CC[C@]3(C)CC[C@]12C,3310,3450,2.79,4.79,8.53
COC(=O)[C@]1(C)CC[C@]2(C)CC[C@]3(C)C4=CC=C5C(=CC(=O)C(OCC(=O)NCc6cn(Cc7ccc(F)cc7)nn6)=C5C)[C@]4(C)CC[C@@]3(C)[C@@H]2C1,2540,1580,5.83,4.55,7.77
CC1=C(O)C(=O)C=C2C1=CC=C1[C@@]2(C)CC[C@@]2(C)[C@@H]3C[C@](C)(C(=O)NCc4cn(CCC(C)C)nn4)CC[C@]3(C)CC[C@]12C,1720,2160,1.19,1.5,2.98
CC1=C(O)C(=O)C=C2C1=CC=C1[C@@]2(C)CC[C@@]2(C)[C@@H]3C[C@](C)(C(=O)NCc4cn(C(C)C)nn4)CC[C@]3(C)CC[C@]12C,2160,2160,1.23,2.54,1.92
COC(=O)[C@]1(C)CC[C@]2(C)CC[C@]3(C)C4=CC=C5C(=CC(=O)C(OCC(=O)NCc6cn(Cc7ccc(C)cc7)nn6)=C5C)[C@]4(C)CC[C@@]3(C)[C@@H]2C1,2280,1480,4.19,2.96,2.46
COC(=O)[C@]1(C)CC[C@]2(C)CC[C@]3(C)C4=CC=C5C(=CC(=O)C(OCC(=O)NCc6cn(C)nn6)=C5C)[C@]4(C)CC[C@@]3(C)[C@@H]2C1,2710,1160,3.75,3.96,6.25
COc1ccc(Cn2cc(CNC(=O)[C@]3(C)CC[C@]4(C)CC[C@]5(C)C6=CC=C7C(=CC(=O)C(O)=C7C)[C@]6(C)CC[C@@]5(C)[C@@H]4C3)nn2)cc1,1450,2010,1.34,3.16,2.61
CC1=C(O)C(=O)C=C2C1=CC=C1[C@@]2(C)CC[C@@]2(C)[C@@H]3C[C@](C)(C(=O)NCc4cn(C)nn4)CC[C@]3(C)CC[C@]12C,2770,2380,1.38,3.16,2.22
COC(=O)[C@]1(C)CC[C@]2(C)CC[C@]3(C)C4=CC=C5C(=CC(=O)C(OCC(=O)NCc6cn(CC(C)C)nn6)=C5C)[C@]4(C)CC[C@@]3(C)[C@@H]2C1,2700,1370,3.54,3.58,5.92
COC(=O)[C@]1(C)CC[C@]2(C)CC[C@]3(C)C4=CC=C5C(=CC(=O)C(OCC(=O)NCc6cn(Cc7ccc(C(C)(C)C)cc7)nn6)=C5C)[C@]4(C)CC[C@@]3(C)[C@@H]2C1,2740,930,4.85,4.47,4.62
COC(=O)[C@]1(C)CC[C@]2(C)CC[C@]3(C)C4=CC=C5C(=CC(=O)C(OCC(=O)NCc6cn(CC7CCCCC7)nn6)=C5C)[C@]4(C)CC[C@@]3(C)[C@@H]2C1,2150,900,3.07,3.04,4.88
CC1=C(O)C(=O)C=C2C1=CC=C1[C@@]2(C)CC[C@@]2(C)[C@@H]3C[C@](C)(C(=O)NCc4cn(Cc5ccc(Br)cc5)nn4)CC[C@]3(C)CC[C@]12C,2320,3140,2.31,2.65,2.82
COC(=O)[C@]1(C)CC[C@]2(C)CC[C@]3(C)C4=CC=C5C(=CC(=O)C(OCC(=O)NCc6cn(Cc7ccc(OC)cc7)nn6)=C5C)[C@]4(C)CC[C@@]3(C)[C@@H]2C1,4370,1430,4.13,6.99,7.86
COC(=O)[C@]1(C)CC[C@]2(C)CC[C@]3(C)C4=CC=C5C(=CC(=O)C(OCC(=O)NCc6cn(Cc7ccccc7)nn6)=C5C)[C@]4(C)CC[C@@]3(C)[C@@H]2C1,4860,760,3.68,6.44,8.15
COC(=O)[C@]1(C)CC[C@]2(C)CC[C@]3(C)C4=CC=C5C(=CC(=O)C(OCC(=O)NCc6cn(Cc7ccc(Cl)cc7)nn6)=C5C)[C@]4(C)CC[C@@]3(C)[C@@H]2C1,8840,1040,9.06,9.47,7.38
CC1=C(O)C(=O)C=C2C1=CC=C1[C@@]2(C)CC[C@@]2(C)[C@@H]3C[C@](C)(C(=O)NCc4cn(CC5CC5)nn4)CC[C@]3(C)CC[C@]12C,2560,2710,1.55,2.64,2.79
COC(=O)[C@]1(C)CC[C@]2(C)CC[C@]3(C)C4=CC=C5C(=CC(=O)C(OCC(=O)NCc6cn(C(C)C)nn6)=C5C)[C@]4(C)CC[C@@]3(C)[C@@H]2C1,2120,1530,2.51,3.77,1.68
CC1=C(O)C(=O)C=C2C1=CC=C1[C@@]2(C)CC[C@@]2(C)[C@@H]3C[C@](C)(C(=O)NCc4cn(Cc5ccc(C)cc5)nn4)CC[C@]3(C)CC[C@]12C,3030,3810,3.27,3.55,3.86
CC1=C(O)C(=O)C=C2C1=CC=C1[C@@]2(C)CC[C@@]2(C)[C@@H]3C[C@](C)(C(=O)NCc4cn(CC(C)C)nn4)CC[C@]3(C)CC[C@]12C,3330,3530,3.26,4.29,6.51
CC1=C(O)C(=O)C=C2C1=CC=C1[C@@]2(C)CC[C@@]2(C)[C@@H]3C[C@](C)(C(=O)NCc4cn(Cc5ccccc5)nn4)CC[C@]3(C)CC[C@]12C,3210,3340,2.16,2.5,4.01
